Values of other authors in PubChem BioAssay AID1259409 (Chemical Carcinogenesis Research Information System (CCRIS), 2018).
“And” between values parts separate entries of the source, which are not always exact repeats. Equal entries are not always repeated.

Test system: rodent chemically induced tumor inhibition, incidence and multiplicity
Test: CCRIS tumor inhibitor studies

Question: Which “tumour outcome (control, treated, inhibition, significance)” value (Carcinogen: 1,2-DIMETHYLHYDRAZINE, 540-73-8, Dose [Inhibitor]: 1.25 MG/G IN DIET FOR 17 WK (STUDY DURATION: 36 WK), Route [Inhibitor]: ORAL, Species: MOUSE, Strain/Sex: CF1/FEMALE, Target Tissue: Type of Lesion: LARGE INTESTINE: TUMOR, Dose [Carcinogen]: 0.7 MG IN 0.2 ML EDTA SOLUTION ADMINISTERED 8 D AFTER INHIBITOR DIET STARTED AND CONTINUED 1/WK FOR 16 WK, Promoter: NONE USED) does the source give for S=C=NCc1ccccc1 here?
Answer: Its value is 9/9 (100%), 14/14 (100%), 0%, not significant.

Question: What about the “tumour outcome (control, treated, inhibition, significance)” value (Carcinogen: 2-AMINO-1-METHYL-6-PHENYLIMIDAZO[4,5-B]PYRIDINE, 105650-23-5, Dose [Inhibitor]: 0, 400 PPM IN HIGH FAT DIET FOR DURATION OF STUDY BEGINNING 1 WK PRIOR TO CARCINOGEN TREATMENT (STUDY DURATION: 31 WK), Route [Inhibitor]: ORAL, Species: RAT, Strain/Sex: SPRAGUE-DAWLEY/FEMALE, Target Tissue: Type of Lesion: MAMMARY GLAND: ADENOCARCINOMA, Dose [Carcinogen]: 100 MG/KG BW 1/2 D FOR 16 D, Promoter: NONE USED) of the same compound?
Answer: The value was 23/31 (74%), 20/32 (63%), 15%, not significant.

Question: And the “tumour outcome (control, treated, inhibition, significance)” value (Carcinogen: 4-(METHYLNITROSAMINO)-1-(3-PYRIDYL)-1-BUTANONE [64091-91-4], BENZO[A]PYRENE [50-32-8], Dose [Inhibitor]: 1 UMOL/G IN DIET FOR 10 WK BEGINNING 1 WK PRIOR TO FIRST CARCINOGEN DOSE (STUDY DURATION: 28 WK), Route [Inhibitor]: ORAL, Species: MOUSE, Strain/Sex: A/J/FEMALE, Target Tissue: Type of Lesion: LUNG: TUMOR, Dose [Carcinogen]: 3 UMOL BAP + 3 UMOL NNK IN 0.1 ML COTTONSEED OIL 1X/WK FOR 8 WK (STUDY DURATION: 28 WK), Promoter: NONE)?
Answer: The value was 100%, 100%, 0%, not calculated.

Question: And the “tumour outcome (control, treated, inhibition, significance)” value (Carcinogen: 4-(METHYLNITROSAMINO)-1-(3-PYRIDYL)-1-BUTANONE [64091-91-4], BENZO[A]PYRENE [50-32-8], Dose [Inhibitor]: 6 UMOL IN 0.1 ML COTTONSEED OIL 1/WK FOR 8 WK 2 HR PRIOR TO EACH CARCINOGEN DOSE (STUDY DURATION: 16 WK), Route [Inhibitor]: GAVAGE, Species: MOUSE, Strain/Sex: A/J/FEMALE, Target Tissue: Type of Lesion: LUNG: TUMOR, Dose [Carcinogen]: 3 UMOL BAP + 3 UMOL NNK IN 0.1 ML COTTONSEED OIL 1X/WK FOR 8 WK (STUDY DURATION: 16 WK), Promoter: NONE)?
Answer: The value was 100%, 100%, 0%, not calculated.

Question: What about the “tumour outcome (control, treated, inhibition, significance)” value (Carcinogen: 4-(METHYLNITROSAMINO)-1-(3-PYRIDYL)-1-BUTANONE, 64091-91-4, Dose [Inhibitor]: 0, 1 UMOL/G DIET FOR 15 WK BEGINNING 1 WK POST CARCINOGEN DOSE (STUDY DURATION: 16 WK), Route [Inhibitor]: ORAL, Species: MOUSE, Strain/Sex: STRAIN-A/FEMALE, Target Tissue: Type of Lesion: LUNG: ADENOMA, Dose [Carcinogen]: 10 UMOL ONCE, Promoter: NONE USED) of the same compound?
Answer: The value was 100%, 100%, 0%, not significant.

Question: What about the “tumour outcome (control, treated, inhibition, significance)” value (Carcinogen: 4-(METHYLNITROSAMINO)-1-(3-PYRIDYL)-1-BUTANONE, 64091-91-4, Dose [Inhibitor]: 0, 3 UMOL/G DIET FOR 15 WK BEGINNING 1 WK POST CARCINOGEN DOSE (STUDY DURATION: 16 WK), Route [Inhibitor]: ORAL, Species: MOUSE, Strain/Sex: STRAIN-A/FEMALE, Target Tissue: Type of Lesion: LUNG: ADENOMA, Dose [Carcinogen]: 10 UMOL ONCE, Promoter: NONE USED) of the same compound?
Answer: The value was 100%, 100%, 0%, not significant.

Question: And the “tumour outcome (control, treated, inhibition, significance)” value (Carcinogen: 4-(METHYLNITROSAMINO)-1-(3-PYRIDYL)-1-BUTANONE, 64091-91-4, Dose [Inhibitor]: 0, 5 UMOL 1/D FOR 4 D ADMINISTERED PRIOR TO CARCINOGEN DOSE (STUDY DURATION: 116 D), Route [Inhibitor]: GAVAGE, Species: MOUSE, Strain/Sex: STRAIN-A, Target Tissue: Type of Lesion: LUNG: ADENOMA, Dose [Carcinogen]: 10 UMOL IN SALINE ADMINISTERED 2 HR POST LAST AGENT DOSE, Promoter: NONE USED)?
Answer: The value was 100%, 100%, 0%.

Question: What about the “tumour outcome (control, treated, inhibition, significance)” value (Carcinogen: 4-(METHYLNITROSAMINO)-1-(3-PYRIDYL)-1-BUTANONE, 64091-91-4, Dose [Inhibitor]: 0, 5 UMOL/D FOR 4 CONSECUTIVE DAYS (STUDY DURATION: 17 WK), Route [Inhibitor]: GAVAGE, Species: MOUSE, Strain/Sex: STRAIN-A/FEMALE, Target Tissue: Type of Lesion: LUNG: ADENOMA, Dose [Carcinogen]: 10 UMOL ONCE 2 HR POST LAST AGENT DOSE, Promoter: NONE USED) of the same compound?
Answer: The value was 100%, 100%, 0%, not significant.

Question: What about the “tumour outcome (control, treated, inhibition, significance)” value (Carcinogen: 4-(METHYLNITROSAMINO)-1-(3-PYRIDYL)-1-BUTANONE, 64091-91-4, Dose [Inhibitor]: 5 UMOL/D FOR 4 CONSECUTIVE DAYS (STUDY DURATION: 16 WK), Route [Inhibitor]: GAVAGE, Species: MOUSE, Strain/Sex: STRAIN-A/FEMALE, Target Tissue: Type of Lesion: LUNG: ADENOMA, Dose [Carcinogen]: 10 UMOL ONCE 2 HR POST LAST AGENT DOSE, Promoter: NONE USED) of the same compound?
Answer: The value was 30/30 (100%), 30/30 (100%), 0%.

Question: What about the “tumour outcome (control, treated, inhibition, significance)” value (Carcinogen: 4-(N-NITROSOMETHYLAMINO)-1-(3-PYRIDYL)-1-BUTANONE, 64091-91-4, Dose [Inhibitor]: 0, 5 UMOL/D FOR 4 CONSECUTIVE DAYS (STUDY DURATION: 16.5 WK), Route [Inhibitor]: GAVAGE, Species: MOUSE, Strain/Sex: STRAIN-A/FEMALE, Target Tissue: Type of Lesion: LUNG: ADENOMA, Dose [Carcinogen]: 10 UMOL ONCE 2 HR POST LAST AGENT DOSE, Promoter: NONE USED) of the same compound?
Answer: Its value is 100%, 100%, 0%, not significant.

Question: And the “tumour outcome (control, treated, inhibition, significance)” value (Carcinogen: 4-METHYLNITROSAMINO)-1-(3-PYRIDYL)-1-BUTANONE, 64091-91-4, Dose [Inhibitor]: 0, 5 UMOL 1/D FOR 4 D ADMINISTERED PRIOR TO CARCINOGEN TREATMENT (STUDY DURATION: 116 D), Route [Inhibitor]: GAVAGE, Species: MOUSE, Strain/Sex: STRAIN A, Target Tissue: Type of Lesion: LUNG: ADENOMA, Dose [Carcinogen]: 10 UMOL ONCE 2 HR AFTER FINAL DOSE OF INHIBITOR, Promoter: NONE USED)?
Answer: The value was 100%, 100%, 0%, not significant.

Question: And the “tumour outcome (control, treated, inhibition, significance)” value (Carcinogen: 7,12-DIMETHYLBENZ[A]ANTHRACENE, 57-97-6, Dose [Inhibitor]: 0.017 MMOL/G IN DIET BEGINNING 1 WK AFTER CARCINOGEN ADMINISTRATION (STUDY DURATION: 28 WK), Route [Inhibitor]: ORAL, Species: RAT, Strain/Sex: SPRAGUE-DAWLEY/FEMALE, Target Tissue: Type of Lesion: MAMMARY GLAND: TUMOR, Dose [Carcinogen]: 12 MG DMBA IN 1.0 ML OLIVE OIL ONCE, Promoter: NONE USED)?
Answer: The value was 100%, 63%, 37%, p<0.001.

Question: What about the “tumour outcome (control, treated, inhibition, significance)” value (Carcinogen: 7,12-DIMETHYLBENZ[A]ANTHRACENE, 57-97-6, Dose [Inhibitor]: 5.0 MG/G DIET AT AGE 9 WK SIMULTANEOUSLY WITH CARCINOGEN, 3/WK FOR 4 WK (STUDY DURATION: 20 WK), Route [Inhibitor]: ORAL, Species: MOUSE, Strain/Sex: ICR/FEMALE, Target Tissue: Type of Lesion: LUNG: ADENOMA, Dose [Carcinogen]: 0.05 MG/G DIET AT AGE 9 WK, 3/WK FOR 4 WK, Promoter: NONE USED) of the same compound?
Answer: The value was 95%, 93%, 2%, not significant.

Question: What about the “tumour outcome (control, treated, inhibition, significance)” value (Carcinogen: 7,12-DIMETHYLBENZ[A]ANTHRACENE, 57-97-6, Dose [Inhibitor]: 5 MG/G DIET AT AGE 9 WK SIMULTANEOUSLY WITH CARCINOGEN, 3/WK FOR 6 WK (STUDY DURATION: 20 WK), Route [Inhibitor]: ORAL, Species: MOUSE, Strain/Sex: ICR/FEMALE, Target Tissue: Type of Lesion: FORESTOMACH: TUMOR, Dose [Carcinogen]: 0.05 MG/G DIET AT AGE 9 WK, 3/WK FOR 4 WK, Promoter: NONE USED) of the same compound?
Answer: Its value is 87%, 5%, 94%, p<0.01.

Question: And the “tumour outcome (control, treated, inhibition, significance)” value (Carcinogen: 7,12-DIMETHYLBENZ[A]ANTHRACENE, 57-97-6, Dose [Inhibitor]: 25 MG ONCE 2 HR BEFORE DMBA TREATMENT (STUDY DURATION: 18 WK), Route [Inhibitor]: INTRAGASTRIC, Species: RAT, Strain/Sex: SPRAGUE-DAWLEY/FEMALE, Target Tissue: Type of Lesion: MAMMARY GLAND: TUMOR, Dose [Carcinogen]: 12 MG IN 1 ML OLIVE OIL AT AGE 7 WK 2 HR AFTER AGENT TREATMENT, Promoter: NONE USED)?
Answer: The value was 77%, 54%, 30%, not significant.

Question: What about the “tumour outcome (control, treated, inhibition, significance)” value (Carcinogen: 7,12-DIMETHYLBENZ[A]ANTHRACENE, 57-97-6, Dose [Inhibitor]: 25 MG ONCE 4 HR BEFORE DMBA TREATMENT (STUDY DURATION: 18 WK), Route [Inhibitor]: INTRAGASTRIC, Species: RAT, Strain/Sex: SPRAGUE-DAWLEY/FEMALE, Target Tissue: Type of Lesion: MAMMARY GLAND: TUMOR, Dose [Carcinogen]: 12 MG IN 1 ML OLIVE OIL AT AGE 7 WK 4 HR AFTER AGENT TREATMENT, Promoter: NONE USED) of the same compound?
Answer: Its value is 86%, 50%, 42%, p<0.05.

Question: What about the “tumour outcome (control, treated, inhibition, significance)” value (Carcinogen: 7,12-DIMETHYLBENZ[A]ANTHRACENE, 57-97-6, Dose [Inhibitor]: 50 MG ONCE 2 HR BEFORE DMBA TREATMENT (STUDY DURATION: 18 WK), Route [Inhibitor]: INTRAGASTRIC, Species: RAT, Strain/Sex: SPRAGUE-DAWLEY/FEMALE, Target Tissue: Type of Lesion: MAMMARY GLAND: TUMOR, Dose [Carcinogen]: 12 MG IN 1 ML OLIVE OIL AT AGE 7 WK 2 HR AFTER AGENT TREATMENT, Promoter: NONE USED) of the same compound?
Answer: Its value is 77%, 8%, 90%, p<0.001.

Question: And the “tumour outcome (control, treated, inhibition, significance)” value (Carcinogen: 7,12-DIMETHYLBENZ[A]ANTHRACENE, 57-97-6, Dose [Inhibitor]: 50 MG ONCE 4 HR AFTER DMBA TREATMENT (STUDY DURATION: 18 WK), Route [Inhibitor]: INTRAGASTRIC, Species: RAT, Strain/Sex: SPRAGUE-DAWLEY/FEMALE, Target Tissue: Type of Lesion: MAMMARY GLAND: TUMOR, Dose [Carcinogen]: 12 MG IN 1 ML OLIVE OIL AT AGE 7 WK 4 HR BEFORE AGENT TREATMENT, Promoter: NONE USED)?
Answer: The value was 71%, 62%, 13%, not significant.

Question: What about the “tumour outcome (control, treated, inhibition, significance)” value (Carcinogen: 7,12-DIMETHYLBENZ[A]ANTHRACENE, 57-97-6, Dose [Inhibitor]: 50 MG ONCE 4 HR BEFORE DMBA TREATMENT (STUDY DURATION: 18 WK), Route [Inhibitor]: INTRAGASTRIC, Species: RAT, Strain/Sex: SPRAGUE-DAWLEY/FEMALE, Target Tissue: Type of Lesion: MAMMARY GLAND: TUMOR, Dose [Carcinogen]: 12 MG IN 1 ML OLIVE OIL AT AGE 7 WK 4 HR AFTER AGENT TREATMENT, Promoter: NONE USED) of the same compound?
Answer: Its value is 100%, 21%, 79%, p<0.001 and 85%, 23%, 73%, p<0.01.
